According to PubChem BioAssay (NCI):
Several values for one entry are separate records, joined by “and”; a condition that tells them apart may be missing. Identical values can stand only once.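 All cell lines were grown in 96-well plates and treated with compound for 48 hours. GI50 is the concentration that inhibits growth by half. At the TGI there is no net growth.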

Columns and labels:
Experiment in all cases: DTP human tumour cell line panel, 48 h
ACHN renal = system: ACHN renal
BT-549 breast = system: BT-549 breast
DLD-1 colon = system: DLD-1 colon
HOP-92 NSCLC = system: HOP-92 NSCLC
IGROV1 ovarian = system: IGROV1 ovarian
KM20L2 colon = system: KM20L2 colon
OVCAR-4 ovarian = system: OVCAR-4 ovarian
SF-295 CNS = system: SF-295 CNS
SK-MEL-5 melanoma = system: SK-MEL-5 melanoma
SR leukemia = system: SR leukemia

CC(=O)OCC1OC(n2c(=S)n(-c3ccc([N+](=O)[O-])cc3)c(=O)c3ccccc32)C(OC(C)=O)C(OC(C)=O)C1OC(C)=O (configuration not stated)
GI50 (ACHN renal): 20.3 µM and 29.7 µM | TGI (ACHN renal): 97.9 µM and > 100 µM | TGI (BT-549 breast): 26.7 µM | GI50 (DLD-1 colon): 21.9 µM and 30.4 µM | TGI (DLD-1 colon): > 100 µM | GI50 (HOP-92 NSCLC): 21.9 µM | TGI (HOP-92 NSCLC): > 91.6 µM and 47.4 µM | GI50 (IGROV1 ovarian): 29.2 µM and 20.4 µM | TGI (IGROV1 ovarian): > 71 µM and 54.5 µM | TGI (KM20L2 colon): > 100 µM and 87.7 µM | TGI (OVCAR-4 ovarian): 60.3 µM and 40.9 µM | TGI (SF-295 CNS): > 59.8 µM and 62.3 µM | GI50 (SK-MEL-5 melanoma): 8.06 µM and 25.6 µM | TGI (SK-MEL-5 melanoma): 23.3 µM and > 100 µM | GI50 (SR leukemia): 4.67 µM | TGI (SR leukemia): > 100 µM

CC1CC2C3CCC4=CC(=O)C=CC4(C)C3(F)C(O)CC2(C)C1(O)C(=O)COP(=O)(O)O (configuration not stated)
GI50 (ACHN renal): > 500 µM | TGI (ACHN renal): > 500 µM | GI50 (BT-549 breast): 160 µM | TGI (BT-549 breast): > 500 µM | TGI (DLD-1 colon): > 100 µM | GI50 (HOP-92 NSCLC): > 500 µM | TGI (HOP-92 NSCLC): > 500 µM | GI50 (IGROV1 ovarian): > 500 µM | TGI (IGROV1 ovarian): > 500 µM | TGI (KM20L2 colon): > 100 µM | GI50 (OVCAR-4 ovarian): > 500 µM | TGI (OVCAR-4 ovarian): > 500 µM | GI50 (SF-295 CNS): > 500 µM | TGI (SF-295 CNS): > 500 µM | GI50 (SK-MEL-5 melanoma): > 500 µM | TGI (SK-MEL-5 melanoma): > 500 µM | TGI (SR leukemia): > 100 µM

NC(=O)c1ccc2c(c1)-c1nc-2nc2[n-]c(nc3nc(nc4[n-]c(n1)c1ccc(C(N)=O)cc41)-c1ccc(C(N)=O)cc1-3)c1ccc(C(N)=O)cc21.[Co+2]
GI50 (ACHN renal): > 50 µM | TGI (ACHN renal): > 50 µM | GI50 (DLD-1 colon): 43.5 µM | TGI (DLD-1 colon): > 50 µM | GI50 (HOP-92 NSCLC): > 50 µM | TGI (HOP-92 NSCLC): > 50 µM | GI50 (IGROV1 ovarian): > 50 µM | TGI (IGROV1 ovarian): > 50 µM | GI50 (KM20L2 colon): > 50 µM | TGI (KM20L2 colon): > 50 µM | GI50 (OVCAR-4 ovarian): > 50 µM | TGI (OVCAR-4 ovarian): > 50 µM | GI50 (SF-295 CNS): > 50 µM | TGI (SF-295 CNS): > 50 µM | GI50 (SK-MEL-5 melanoma): > 50 µM | TGI (SK-MEL-5 melanoma): > 50 µM | GI50 (SR leukemia): 33.3 µM | TGI (SR leukemia): > 50 µM

COC(=O)NC1C(C)OC(OC2C/C=C(/C)C3C=CC4C(OC5CC(OC6CCC(OC7CC(O)C(OC8CCC(O)C(C)O8)C(C)O7)C(C)O6)C(OC(C)=O)C(C)O5)C(C)CC(C)C4C3(C)/C(O)=C3/C(=O)OC4(CC(C=O)=CC(O)C4/C=C\2C)C3=O)CC1(C)[N+](=O)[O-] (configuration not stated)
TGI (ACHN renal): 2.72 µM | TGI (BT-549 breast): 2.18 µM | GI50 (DLD-1 colon): 0.427 µM | TGI (DLD-1 colon): 11.7 µM and 1.8 µM | GI50 (HOP-92 NSCLC): 0.908 µM | TGI (HOP-92 NSCLC): 2.69 µM and 3.32 µM | GI50 (IGROV1 ovarian): 1.47 µM | TGI (IGROV1 ovarian): 8.43 µM and 3.15 µM | GI50 (KM20L2 colon): 0.365 µM | TGI (KM20L2 colon): 3.68 µM and 1.42 µM | GI50 (OVCAR-4 ovarian): 1.56 µM | TGI (OVCAR-4 ovarian): 7.26 µM and 4.66 µM | GI50 (SF-295 CNS): 0.271 µM | TGI (SF-295 CNS): 2.76 µM and 4.15 µM | GI50 (SK-MEL-5 melanoma): 0.2 µM | TGI (SK-MEL-5 melanoma): 1.95 µM and 0.511 µM | TGI (SR leukemia): 11 µM

COC(=O)C(=O)Cc1nc2ccccc2s1
TGI (ACHN renal): > 100 µM | TGI (DLD-1 colon): > 100 µM | TGI (HOP-92 NSCLC): > 100 µM | TGI (IGROV1 ovarian): > 100 µM | TGI (KM20L2 colon): > 100 µM | TGI (OVCAR-4 ovarian): > 100 µM | TGI (SF-295 CNS): > 100 µM | TGI (SK-MEL-5 melanoma): > 100 µM | TGI (SR leukemia): > 100 µM

Cc1nc(N)nc(N)c1CCCCc1ccc(N)cc1
TGI (ACHN renal): 59.2 µM | TGI (DLD-1 colon): 31.6 µM | TGI (HOP-92 NSCLC): 18 µM | TGI (IGROV1 ovarian): 21.2 µM | TGI (KM20L2 colon): 18.2 µM | TGI (OVCAR-4 ovarian): 25.8 µM | TGI (SF-295 CNS): 14.2 µM | TGI (SK-MEL-5 melanoma): 16.5 µM | TGI (SR leukemia): 24.7 µM

CC(C)(CN1C(=O)C(Cl)=C(Cl)C1=O)CN1C(=O)C(Cl)=C(Cl)C1=O
TGI (ACHN renal): 21.7 µM | TGI (DLD-1 colon): 9.82 µM | TGI (HOP-92 NSCLC): 18.1 µM | TGI (IGROV1 ovarian): 40.4 µM | TGI (KM20L2 colon): 40 µM | TGI (OVCAR-4 ovarian): 43.4 µM | TGI (SF-295 CNS): 58.8 µM | TGI (SK-MEL-5 melanoma): 51.6 µM | TGI (SR leukemia): 36 µM

Nc1nncc2c1c(Br)cn2C1OC(CO)C(O)C1O (configuration not stated)
TGI (ACHN renal): > 100 µM | TGI (DLD-1 colon): > 53 µM | TGI (HOP-92 NSCLC): 62.3 µM | TGI (IGROV1 ovarian): > 100 µM | TGI (KM20L2 colon): > 100 µM | TGI (OVCAR-4 ovarian): > 100 µM | TGI (SF-295 CNS): > 100 µM | TGI (SK-MEL-5 melanoma): > 100 µM | TGI (SR leukemia): > 100 µM

CCOC(=O)C(C)(NC(=O)c1ccc(NCc2ccc3nc(NC(=O)c4ccccc4)nc(NC(=O)c4ccccc4)c3c2)cc1)C(=O)OCC
TGI (ACHN renal): 23.6 µM | TGI (DLD-1 colon): > 100 µM | TGI (HOP-92 NSCLC): 18.9 µM | TGI (IGROV1 ovarian): 63.3 µM | TGI (KM20L2 colon): 85.3 µM | TGI (OVCAR-4 ovarian): 4.18 µM | TGI (SF-295 CNS): 19.9 µM | TGI (SK-MEL-5 melanoma): 22.7 µM | TGI (SR leukemia): > 100 µM

CN=c1ss/c(=N\C(=S)N(C)C)n1C
TGI (ACHN renal): > 100 µM | TGI (DLD-1 colon): > 100 µM | TGI (HOP-92 NSCLC): > 100 µM | TGI (IGROV1 ovarian): > 100 µM | TGI (KM20L2 colon): > 100 µM | TGI (OVCAR-4 ovarian): > 100 µM | TGI (SF-295 CNS): > 100 µM | TGI (SK-MEL-5 melanoma): > 100 µM | TGI (SR leukemia): > 100 µM
